According to patent publication EP4603105A1, “PHARMACEUTICAL COMPOSITION CONTAINING CYCLIC COMPOUND HAVING SELECTIVE KRAS INHIBITORY EFFECT AGAINST HRAS AND NRAS” (CHUGAI SEIYAKU KABUSHIKI KAISHA, priority 2022, dated 2024):
Where a SMILES comes first, the peptide text is derived from it. Bridges are numbered along the chain shown (N, C = ends). [ ]: non-standard residue; d: D form. The star is where a group is joined. hPhe(3,5-F2-4-CF3) = N[C@@H](CCc1cc(F)c(C(F)(F)F)c(F)c1)C(=O)O; NPrPhe(4-CF3) = CCCN[C@@H](Cc1ccc(C(F)(F)F)cc1)C(=O)O; NMeGly(cPent) = CN[C@H](C(=O)O)C1CCCC1; NMeD = CN[C@@H](CC(=O)O)C(=O)O; NMeL = CN[C@@H](CC(C)C)C(=O)O; αMeL = CC(C)C[C@](C)(N)C(=O)O; Morpholide = C1CN(*)CCO1; Aze = O=C(O)[C@@H]1CCN1; Sar = CNCC(=O)O

Columns and labels:
[1] = molecular target: GDP-bound KRAS wild-type protein (Homo sapiens, UniProt P01116); experiment: Binding to KRAS by surface plasmon resonance (SPR), dissociation constant KD
Sequence of GDP-bound KRAS wild-type protein (P01116 1-188 isoform P01116-2): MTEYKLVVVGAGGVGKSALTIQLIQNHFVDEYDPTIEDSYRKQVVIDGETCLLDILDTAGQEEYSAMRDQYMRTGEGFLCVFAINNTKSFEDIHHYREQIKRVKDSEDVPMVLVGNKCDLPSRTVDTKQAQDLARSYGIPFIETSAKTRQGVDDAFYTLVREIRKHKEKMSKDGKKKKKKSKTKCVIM
Summary of the method: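 SPR, 30°C: Avi-biotin RAS·GDP captured via Biotin CAPture (~100–300 RU); running buffer HBS pH 7.4, 1 mM DTT, 10 mM MgCl2, 0.01% Tween 20, 10 µM GDP, 4% DMSO. Single-cycle kinetics, 100 µL/min, 75 s injections; 1:1 model → KD.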

[2] = molecular target: GDP-bound NRAS wild-type protein (Homo sapiens, UniProt P01111); experiment: Binding to NRAS by surface plasmon resonance (SPR), KD and KD ratio to KRAS
Sequence of GDP-bound NRAS wild-type protein (P01111 whole entry): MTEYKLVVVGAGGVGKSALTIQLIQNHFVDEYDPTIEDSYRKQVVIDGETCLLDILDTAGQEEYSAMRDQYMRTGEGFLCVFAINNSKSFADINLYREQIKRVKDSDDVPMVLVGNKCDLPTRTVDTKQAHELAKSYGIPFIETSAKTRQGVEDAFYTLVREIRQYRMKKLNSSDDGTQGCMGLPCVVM
Summary of the method: (§1)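 GDP-loaded biotinylated Avi-tag RAS proteins (E. coli-expressed) captured on a Biotin CAPture chip at ~100–300 RU; single-cycle kinetics at 30°C, 100 µL/min, 75 s injections of rising compound concentrations. HBS pH 7.4 running buffer with 1 mM DTT, 10 mM MgCl2, 10 µM GDP, 4% DMSO. KD from 1:1 binding fit.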

HRAS wild-type protein = HRAS wild-type protein (Homo sapiens, UniProt P01112); experiment: Binding to HRAS by surface plasmon resonance (SPR), KD and KD ratio to KRAS
Sequence of HRAS wild-type protein (P01112 whole entry): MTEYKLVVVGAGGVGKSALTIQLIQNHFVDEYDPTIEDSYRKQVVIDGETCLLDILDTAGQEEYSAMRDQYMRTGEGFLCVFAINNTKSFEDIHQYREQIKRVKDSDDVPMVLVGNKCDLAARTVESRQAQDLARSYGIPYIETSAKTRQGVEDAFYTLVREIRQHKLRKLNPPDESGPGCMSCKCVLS
Summary of the method: as §1

[3] = test system: human lung cancer strain NCI-H441; type: cell-based
Summary of the method: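 Readout: […] after the ATP-based reagent. Compound: serial dilutions in dimethyl sulfoxide.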

[4] = Single Cycle Kinetics, 1:1 binding model
[5] = ratio of the KD value with respect to GDP-bound NRAS wild-type protein to the KD value with respect to KRAS
[6] = ratio of the KD value with respect to HRAS wild-type protein to the KD value with respect to KRAS
[7] = ratio of KD for GDP-bound NRAS wild-type protein to KD for KRAS
[8] = ratio of KD for HRAS wild-type protein to KD for KRAS

CC[C@H](C)[C@@H]1NC(=O)[C@H](CC(C)C)N(C)C(=O)C[C@@H](C(=O)N2C3CCC2COC3)N(C)C(=O)[C@H](C2CCCC2)N(C)C(=O)C2(CCCC2)NC(=O)[C@@H]2CCCN2C(=O)[C@H](CCc2cc(F)c(C(F)(F)F)c(F)c2)NC(=O)CN(C)C(=O)[C@H](Cc2ccc(C(F)(F)F)cc2)N2CCCC[C@@H](C2=O)N(C)C(=O)CN(C)C1=O [PP0573]
Kd [1, 4]: 0.34 nM
NRAS /KRAS [2, 5]: B (a compound having 3 or more and less than 10 is denoted as B)
HRAS /KRAS (HRAS wild-type protein; [6]): B (a compound having 3 or more and less than 10 is denoted as B)
IC50 [3]: 8.7 nM

CCC[C@H]1C(=O)N[C@@H]([C@@H](C)CC)C(=O)N(C)CC(=O)N(C)[C@H]2C/C=C\CCN(C2=O)[C@@H](Cc2ccc(C)cc2)C(=O)N(C)CC(=O)N[C@@H](CCc2ccc(C(F)(F)F)c(OC)c2)C(=O)N2CC3(CC3)C[C@H]2C(=O)NC2(CC(C)(C)C2)C(=O)N(C)[C@@H](CC(C)C)C(=O)N(C)[C@H](C(=O)N(C)C)CC(=O)N1C [PP3013]
Kd ([1]; 1:1 binding model): 0.53 nM
NRAS /KRAS [2, 7]: AA (a compound having 20 or more is denoted as AA)
HRAS /KRAS (HRAS wild-type protein; [8]): B (a compound having 3 or more and less than 10 is denoted as B)
IC50 [3]: 29.7 nM

CCCN1C(=O)CN(C)C(=O)[C@@H]2CCN2C(=O)[C@H]([C@@H](C)CC)NC(=O)[C@H](CC(C)C)N(C)C(=O)C[C@@H](C(=O)N2CCOCC2)N(C)C(=O)[C@H](C2CCCC2)N(C)C(=O)[C@](C)(CC(C)C)NC(=O)[C@@H]2CCCN2C(=O)[C@H](CCc2cc(F)c(C(F)(F)F)c(F)c2)NC(=O)CN(C)C(=O)[C@@H]1Cc1ccc(C(F)(F)F)cc1 [PP0776] ([NMeL]I[Aze][Sar][NPrPhe(4-CF3)][Sar][hPhe(3,5-F2-4-CF3)]P[αMeL][NMeGly(cPent)][NMeD]-Morpholide; lactam N-11)
Kd ([1]; Single Cycle Kinetics): 15 nM
NRAS /KRAS [2, 7]: B (a compound having 3 or more and less than 10 is denoted as B)
HRAS /KRAS (HRAS wild-type protein; [8]): B (a compound having 3 or more and less than 10 is denoted as B)
IC50 [3]: 591 nM

CC[C@H](C)[C@@H]1NC(=O)[C@H](CC(C)C)N(C)C(=O)C[C@@H](C(=O)N(C)C)N(C)C(=O)[C@H](C2CCCC2)N(C)C(=O)C2(CCC2)NC(=O)[C@@H]2C[C@H](C)CN2C(=O)[C@H](CCc2ccc(C(F)(F)F)c(OC)c2)NC(=O)CN(C)C(=O)[C@H](Cc2ccc(C)cc2)N2CC/C=C\C[C@@H](C2=O)N(C)C(=O)CN(C)C1=O [PP1865]
Kd [1, 4]: 0.083 nM
NRAS /KRAS ([2]; ratio of KD value for GDP-bound NRAS wild-type protein to KD value for KRAS (SPR)): A (a compound having 10 or more and less than 20 is denoted as A)
HRAS /KRAS (HRAS wild-type protein; ratio of KD value for HRAS wild-type protein to KD value for KRAS (SPR)): B (a compound having 3 or more and less than 10 is denoted as B)
IC50 [3]: 36 nM

CCC[C@H]1C(=O)N[C@@H]([C@@H](C)CC)C(=O)N(C)CC(=O)N(C)[C@H]2C/C=C\CCN(C2=O)[C@@H](Cc2ccc(C)cc2)C(=O)N(C)CC(=O)N[C@@H](CCc2cc(F)c(C(F)(F)F)c(F)c2)C(=O)N2C[C@H](OCC)C[C@H]2C(=O)NC2(CC(C)(C)C2)C(=O)N(C)[C@@H](CC2CC2)C(=O)N(C)[C@H](C(=O)N(C)C)CC(=O)N1C [PP2797]
Kd ([1]; 1:1 binding model): 0.6 nM
NRAS /KRAS [2, 7]: A (a compound having 10 or more and less than 20 is denoted as A)
HRAS /KRAS (HRAS wild-type protein; [8]): A (a compound having 10 or more and less than 20 is denoted as A)
IC50 [3]: 52.8 nM

CCO[C@@H]1C[C@H]2C(=O)NC3(CC(C)(C)C3)C(=O)N(C)[C@@H](C3CCCC3)C(=O)N(C)[C@H](C(=O)N(C)CC)CC(=O)N(C)[C@@H](CC(C)C)C(=O)N[C@@H]([C@@H](C)CC)C(=O)N(C)CC(=O)N(C)[C@H]3C/C=C\CCN(C3=O)[C@@H](Cc3ccc(C(F)F)cc3)C(=O)N(C)CC(=O)N[C@@H](CCc3cc(F)c4c(c3)OCC4)C(=O)N2C1 [PP3150]
Kd ([1]; 1:1 binding model): 2.9 nM
NRAS /KRAS [2, 7]: A (a compound having 10 or more and less than 20 is denoted as A)
HRAS /KRAS (HRAS wild-type protein; [8]): A (a compound having 10 or more and less than 20 is denoted as A)
IC50 [3]: 191 nM

CCO[C@@H]1C[C@H]2C(=O)NC3(CCC3)C(=O)N(C)[C@@H](C3CCCC3)C(=O)N(C)[C@H](C(=O)N(C)CC)CC(=O)N(C)[C@@H](C3CCC3)C(=O)N[C@@H]([C@@H](C)CC)C(=O)N(C)CC(=O)N(C)[C@H]3C/C=C\CCN(C3=O)[C@@H](Cc3ccc(C(F)(F)F)cc3)C(=O)N(C)CC(=O)N[C@@H](CCc3ccc(C(F)(F)F)c(OC)c3)C(=O)N2C1 [PP2022]
Kd [1, 4]: 0.11 nM
NRAS /KRAS [2, 5]: A (a compound having 10 or more and less than 20 is denoted as A)
HRAS /KRAS (HRAS wild-type protein; [6]): A (a compound having 10 or more and less than 20 is denoted as A)
IC50 [3]: 2.7 nM

CCO[C@@H]1C[C@H]2C(=O)NC3(CCC3)C(=O)N(C)[C@@H](C3CCCC3)C(=O)N(C)[C@H](C(=O)N(C)C)CC(=O)N(C)[C@@H](CC3CCCC3)C(=O)N[C@@H]([C@@H](C)CC)C(=O)N(C)CC(=O)N(C)[C@H]3C/C=C\CCN(C3=O)[C@@H](Cc3ccc(C)cc3)C(=O)N(C)CC(=O)N[C@@H](CCc3ccc(C4CC4)c(Cl)c3)C(=O)N2C1 [PP2684]
Kd ([1]; 1:1 binding model): 0.43 nM
NRAS /KRAS [2, 7]: A (a compound having 10 or more and less than 20 is denoted as A)
HRAS /KRAS (HRAS wild-type protein; [8]): A (a compound having 10 or more and less than 20 is denoted as A)
IC50 [3]: 57.9 nM

CCO[C@@H]1C[C@H]2C(=O)NC3(CCC3)C(=O)N(C)[C@@H](C3CCCC3)C(=O)N(C)[C@H](C(=O)N(CC)CC)CC(=O)N(C)[C@@H](CC(F)F)C(=O)N[C@@H]([C@@H](C)CC)C(=O)N(C)CC(=O)N(C)[C@H]3C/C=C\CCN(C3=O)[C@@H](Cc3ccc(C(F)(F)F)cc3)C(=O)N(C)CC(=O)N[C@@H](CCc3cc(F)c(C(F)(F)F)c(F)c3)C(=O)N2C1 [PP1309]
Kd [1, 4]: 0.16 nM
NRAS /KRAS ([2]; ratio of KD with respect to GDP-bound NRAS wild-type protein to KD with respect to KRAS): A (a compound having 10 or more and less than 20 is denoted as A)
HRAS /KRAS (HRAS wild-type protein; ratio of KD with respect to HRAS wild-type protein to KD with respect to KRAS): A (a compound having 10 or more and less than 20 is denoted as A)
IC50 [3]: 5.3 nM

CCCOC[C@H]1C(=O)N[C@@H]([C@@H](C)CC)C(=O)N(C)CC(=O)N(C)[C@H]2C/C=C\CCN(C2=O)[C@@H](Cc2ccc(C)cc2)C(=O)N(C)CC(=O)N[C@@H](CCc2ccc(C(F)(F)F)c(OC)c2)C(=O)N2C[C@H](OCC)C[C@H]2C(=O)N(C)C2(CCC2)C(=O)N(C)[C@@H](C(CC)CC)C(=O)N(C)[C@H](C(=O)N(C)C)CC(=O)N1C [PP2323]
Kd [1, 4]: 0.14 nM
NRAS /KRAS [2, 5]: A (a compound having 10 or more and less than 20 is denoted as A)
HRAS /KRAS (HRAS wild-type protein; [6]): A (a compound having 10 or more and less than 20 is denoted as A)
IC50 [3]: 3.7 nM

CC[C@H](C)[C@@H]1NC(=O)[C@H](COC)N(C)C(=O)C[C@@H](C(=O)N(C)CC)N(C)C(=O)[C@H](C2CCCC2)N(C)C(=O)C2(CC(C)(C)C2)NC(=O)[C@@H]2CC(F)(F)CN2C(=O)[C@H](CCc2ccc(C(F)(F)F)c(Cl)c2)NC(=O)CN(C)C(=O)[C@H](Cc2ccc(C(F)(F)F)cc2)N2CC/C=C\C[C@@H](C2=O)N(C)C(=O)CN(CC)C1=O [PP3135]
Kd ([1]; 1:1 binding model): 1.1 nM
NRAS /KRAS [2, 7]: A (a compound having 10 or more and less than 20 is denoted as A)
HRAS /KRAS (HRAS wild-type protein; [8]): A (a compound having 10 or more and less than 20 is denoted as A)
IC50 [3]: 27.6 nM

CCC[C@H]1C(=O)N[C@@H]([C@@H](C)CC)C(=O)N(C)CC(=O)N(C)[C@H]2C/C=C\CCN(C2=O)[C@@H](CC2CCCCC2)C(=O)N(C)CC(=O)N[C@@H](CCc2ccc(C(F)(F)F)c(OC)c2)C(=O)N2C[C@H](OCC)C[C@H]2C(=O)N(C)C2(CCC2)C(=O)N(C)[C@@H](C(CC)CC)C(=O)N(C)[C@H](C(=O)N(C)C)CC(=O)N1C [PP2333]
Kd [1, 4]: 1.9 nM
NRAS /KRAS [2, 5]: A (a compound having 10 or more and less than 20 is denoted as A)
HRAS /KRAS (HRAS wild-type protein; [6]): A (a compound having 10 or more and less than 20 is denoted as A)
IC50 [3]: 44.7 nM

CC[C@@H]1C[C@H]2C(=O)NC3(CCC3)C(=O)N(C)[C@@H](C3CCCC3)C(=O)N(C)[C@H](C(=O)N(C)C)CC(=O)N(C)[C@@H](CC(C)C)C(=O)N[C@@H]([C@@H](C)CC)C(=O)N(C)CC(=O)N(C)[C@H]3C/C=C\CCN(C3=O)[C@@H](Cc3ccc(C)cc3)C(=O)N(C)CC(=O)N[C@@H](CCc3cc(F)c(C(F)(F)F)c(F)c3)C(=O)N2C1 [PP2220]
Kd [1, 4]: 0.14 nM
NRAS /KRAS [2, 5]: A (a compound having 10 or more and less than 20 is denoted as A)
HRAS /KRAS (HRAS wild-type protein; [6]): A (a compound having 10 or more and less than 20 is denoted as A)
IC50 [3]: 32.1 nM
